{"source": "ChEMBL document CHEMBL5214887", "about": "“Dispirotripiperazine-core compounds, their biological activity with a focus on broad antiviral property, and perspectives in drug design (mini-review)” (Eur J Med Chem, 2021)", "key": {"Human alphaherpesvirus 1 [1]": {"test_system": "Human alphaherpesvirus 1", "experiment": "Antiviral activity against HSV-1 infected in African green monkey GMK-AH-1 cells assessed as viral growth inhibition incubated for 73 hrs by crystal violet staining assay", "assay_type": "functional, organism-based", "details": "Human alphaherpesvirus 1, 73 h"}, "[2]": {"test_system": "Human immunodeficiency virus 1", "experiment": "Antiviral activity against HIV-1 assessed as viral growth inhibition", "assay_type": "functional, organism-based"}, "[3]": {"test_system": "Human immunodeficiency virus", "experiment": "Antiviral activity against HIV assessed as viral growth inhibition", "assay_type": "functional, organism-based", "details": "Human immunodeficiency virus 1"}, "Deltapapillomavirus 4": {"test_system": "Deltapapillomavirus 4", "experiment": "Antiviral activity against BPV1 infected in human HEK293T cells assessed as viral growth inhibition incubated for 72 hrs by green fluorescent protein based method", "assay_type": "functional, organism-based", "details": "Deltapapillomavirus 4, HEK-293T"}, "Human alphaherpesvirus 1 [4]": {"test_system": "Human alphaherpesvirus 1", "experiment": "Antiviral activity against acyclovir resistant HSV-1 infected in African green monkey GMK-AH-1 cells assessed as viral growth inhibition incubated for 73 hrs", "assay_type": "functional, organism-based", "details": "Human alphaherpesvirus 1, 73 h"}, "Human alphaherpesvirus 2": {"test_system": "Human alphaherpesvirus 2", "experiment": "Antiviral activity against HSV-2 infected in African green monkey GMK-AH-1 cells assessed as viral growth inhibition incubated for 73 hrs", "assay_type": "functional, organism-based", "details": "Human alphaherpesvirus 2, 73 h"}, "Lyssavirus rabies": {"test_system": "Lyssavirus rabies", "experiment": "Antiviral activity against radiolabeled Rabies virus infected in bovine MDBK cell at 80 ug/ml incubated for 4 hrs by attachment assay based liquid scintillation counting analysis", "assay_type": "functional", "details": "dose 80 µg/ml"}, "Human betaherpesvirus 5 [5]": {"test_system": "Human betaherpesvirus 5", "experiment": "Antiviral activity against ganciclovir sensitive HCMV infected in human HELF cells assessed as viral growth inhibition incubated for 8 days", "assay_type": "functional, organism-based", "details": "Human betaherpesvirus 5, HELF, 192 h"}, "Human betaherpesvirus 5 [6]": {"test_system": "Human betaherpesvirus 5", "experiment": "Antiviral activity against ganciclovir resistant HCMV infected in human HELF cells assessed as viral growth inhibition incubated for 8 days", "assay_type": "functional, organism-based", "details": "Human betaherpesvirus 5, HELF, 192 h"}, "[7]": {"test_system": "Human papillomavirus type 16", "experiment": "Antiviral activity against HPV16 infected in human HEK293T cells assessed as viral growth inhibition incubated for 72 hrs by green fluorescent protein based method", "assay_type": "functional, organism-based", "details": "Human papillomavirus 16, HEK-293T"}, "[8]": {"test_system": "Respiratory syncytial virus", "experiment": "Antiviral activity against RSV assessed as viral growth inhibition", "assay_type": "functional, organism-based", "details": "human respiratory syncytial virus"}, "[9]": {"experiment": "Antiviral activity against HPV18 infected in human HEK293T cells assessed as viral growth inhibition incubated for 72 hrs by green fluorescent protein based method", "assay_type": "functional, cell-based", "details": "human papillomavirus 18, HEK-293T"}, "Human alphaherpesvirus 1 [10]": {"test_system": "Human alphaherpesvirus 1", "experiment": "Antiviral activity against HSV-1 assessed as viral growth inhibition", "assay_type": "functional, organism-based"}, "[11]": {"experiment": "Toxicity in mouse assessed as lethal dose at ip as single dose", "assay_type": "organism-based", "details": "in vivo"}, "[12]": {"experiment": "[…] in herpetic encephalitis mouse model assessed as reduction in mortality at 250 mg/kg,po bid for 5 days", "assay_type": "organism-based", "set-up": "scale not given: the % may be the effect or the level left", "details": "in vivo, 120 h, time 5 day"}}}
{"compound": "Cc1nc(N2CC[N+]3(CC2)CC[N+]2(CCNCC2)CC3)c([N+](=O)[O-])c(N2CC[N+]3(CC2)CC[N+]2(CCNCC2)CC3)n1", "values": [{"measurement": "IC50", "setting": "Human alphaherpesvirus 1 [1]", "value": 1.48, "unit": "µM"}]}
{"compound": "Cl.Cl.[O-][n+]1onc2ncnc(N3CC[N+]4(CC3)CC[N+]3(CCN(c5ncnc6no[n+]([O-])c56)CC3)CC4)c21", "values": [{"measurement": "IC50", "setting": "[2]", "value": 150, "unit": "µM"}, {"measurement": "IC50", "setting": "[3]", "value": 1.4, "unit": "µM"}, {"measurement": "IC50", "setting": "Deltapapillomavirus 4", "value": 2.6, "unit": "µM"}, {"measurement": "IC50", "setting": "Human alphaherpesvirus 1 [4]", "value": 8.1, "unit": "µM"}, {"measurement": "IC50", "setting": "Human alphaherpesvirus 2", "value": 10.2, "unit": "µM"}, {"measurement": "Activity", "setting": "Lyssavirus rabies", "value": 95, "unit": "%"}, {"measurement": "IC50", "setting": "Human betaherpesvirus 5 [5]", "value": 0.15, "unit": "µM"}, {"measurement": "IC50", "setting": "Human betaherpesvirus 5 [6]", "value": 0.15, "unit": "µM"}, {"measurement": "IC50", "setting": "[7]", "value": 1.4, "unit": "µM"}, {"measurement": "IC50", "setting": "[8]", "value": 7.5, "unit": "µM"}, {"measurement": "IC50", "setting": "[9]", "value": 0.7, "unit": "µM"}]}
{"compound": "OC(CCl)CN1CC[N+]2(CC1)CC[N+]1(CCN(CC(O)CCl)CC1)CC2.[Cl-].[Cl-]", "note": "(configuration not stated) [PROSPIDIUM CHLORIDE]", "values": [{"measurement": "IC50", "setting": "Human alphaherpesvirus 1 [10]", "value": 62.5, "unit": "µM"}, {"measurement": "LD50", "setting": "[11]", "value": 100, "unit": "mg/kg"}]}
{"compound": "O=C(CCBr)N1CC[N+]2(CC1)CC[N+]1(CCN(C(=O)CCBr)CC1)CC2.[Cl-].[Cl-]", "note": "[DIBROSPIDIUM CHLORIDE]", "values": [{"measurement": "Activity", "setting": "[12]", "value": 35, "unit": "%"}, {"measurement": "IC50", "setting": "Human alphaherpesvirus 1 [10]", "value": 66.1, "unit": "µM"}, {"measurement": "LD50", "setting": "[11]", "value": 1920, "unit": "mg/kg"}]}
{"compound": "Cc1nc(N2CC[N+]3(CCC[N+]4(CCNCC4)CC3)CC2)c([N+](=O)[O-])c(N2CC[N+]3(CCC[N+]4(CCNCC4)CC3)CC2)n1", "values": [{"measurement": "IC50", "setting": "Human alphaherpesvirus 1 [10]", "value": 1.12, "unit": "µM"}]}
{"compound": "O=C(CCCl)N1CC[N+]2(CC1)CC[N+]1(CCN(C(=O)CCCl)CC1)CC2.[Cl-].[Cl-]", "values": [{"measurement": "Activity", "setting": "[12]", "value": 35, "unit": "%"}]}
{"compound": "Cc1nc(N2CCC[N+]3(CC2)CC[N+]2(CCCNCC2)CC3)c([N+](=O)[O-])c(N2CCC[N+]3(CC2)CC[N+]2(CCCNCC2)CC3)n1", "note": "(configuration not stated)", "values": [{"measurement": "IC50", "setting": "[3]", "value": 4, "unit": "µM"}, {"measurement": "IC50", "setting": "Human alphaherpesvirus 1 [10]", "value": 1.97, "unit": "µM"}, {"measurement": "IC50", "setting": "[8]", "value": "> 100", "unit": "µM"}]}
